Consider 2 compounds from patent US20240209027A1, “PEPTIDE AND PEPTIDE-CONTAINING COMPOSITION” (PeptiAID Inc.,, priority 2021, published 2024).

The target of data set [1] is spike protein of SARS-CoV-2 (GENE Accession No. YP 009724390) (Severe acute respiratory syndrome coronavirus 2, UniProt P0DTC2). Description: Screening for target protein-binding peptides. An excerpt: First, the spike protein of SARS-CoV-2 (GENE Accession No. YP 009724390) was set to a target and the screening method described in International Publication WO2014/119600, International Publication WO2012/033154, or International Publication WO 2007/066627 was used to discover the target protein-binding peptides.

A further data set in a line: in vitro. The following applies: African green monkey.
For data set [2], the system named is SARS-CoV-2 (JPN/TY/WK-521 strain). The class given is cell-based. Also noted: key: the case where the peptide was found to have anti-SARS-CoV-2 activity when added at 50 nM was designated as “2”; the case where no activity was found upon the addition at 50 nM but the activity was found at 1 μM was designated as “1”. The note with it: peptide added at 50 nM or 1 μM.

Data set [3] deals with SARS-CoV2 (USA WA1/2020 strain). The note with it: 72 h.
Data set [4] has as its target SARS-CoV-2-derived S protein, Wuhan strain (Severe acute respiratory syndrome coronavirus 2, UniProt P0DTC2). The class given is cell-based.
Data set [5] has as its system SARS-CoV-2 mouse subculture strain QHmusX. The class given is in vivo, BALB/c mice.

Starred links: 1 amine or outer side, 2 acyl side, 3 side chain; linkers in the order of their positions; H or OH if unused. Positions of bridges follow the written chain, without caps; N, C: chain ends. Non-standard residues stand in square brackets, D forms with d. Residues, ends and D or L forms follow the SMILES beside them. Ala(piperidin-4-yl) = O=C([C@H](CC1CCN([*:3])CC1)N[*:1])[*:2]; Phe(4-COOH) = N[C@@H](Cc1ccc(C(=O)O)cc1)C(=O)O; Phe(4-F) = N[C@@H](Cc1ccc(F)cc1)C(=O)O; NMeE = CN[C@@H](CCC(=O)O)C(=O)O; Cha = N[C@@H](CC1CCCCC1)C(=O)O; NMeNle = CCCC[C@H](NC)C(=O)O; Aib = CC(C)(N)C(=O)O Where only a bound is given, the exact number is not on record here.

As for `C[C@H]1C(=O)N(C)[C@@H](Cc2ccccc2)C(=O)N[C@@H](CO)C(=O)N[C@@H](CC2CCCCC2)C(=O)N[C@@H](Cc2ccc(O)cc2)C(=O)N[C@@H](CO)C(=O)N[C@@H](Cc2ccc(O)cc2)C(=O)N[C@@H](Cc2ccc(O)cc2)C(=O)N[C@@H](CCCNC(=N)N)C(=O)N[C@@H](CCCNC(=N)N)C(=O)N[C@@H](CC2CCCCC2)C(=O)N[C@H](C(=O)N[C@H](CCC(=O)O)C(N)=O)CSCC(=O)N1C` [Peptide 5555_p000, MeA-MeF-S-Cha-Y-S-Y-Y-R-R-Cha-C], in data set [1], the “binding to the spike protein of SARS-CoV-2” value was “binds to the spike protein of SARS-CoV-2”. In the data set “in vitro”, this compound yielded a CC50 at 72 h of over 1000 nM. The Anti-SARS-CoV-2 activity in data set [2] stood at 2. In addition, 23.9 nM corresponded to half-maximal inhibition in data set [3] (IC50). Besides, the “Imax: % (at 500 nM)” value in data set [4] amounted to 100%.

`CCCC[C@H]1C(=O)NC(C)(C)C(=O)N[C@@H](CC2CCCCC2)C(=O)N[C@@H](Cc2ccc(F)cc2)C(=O)NC(C)(C)C(=O)N[C@@H](Cc2ccc(O)cc2)C(=O)N[C@@H](Cc2ccc(O)cc2)C(=O)N[C@@H](Cc2ccc(C(=O)O)cc2)C(=O)N[C@@H](CC2CCNCC2)C(=O)N[C@@H](CC2CCCCC2)C(=O)N[C@H](C(=O)N[C@H](CCC(=O)O)C(N)=O)CSCC(=O)N(C)[C@@H](CCC(=O)O)C(=O)N1C` [Peptide 5555_p020] ({CH2CO}-[NMeE][NMeNle][Aib][Cha][Phe(4-F)][Aib]YY[Phe(4-COOH)][Ala(piperidin-4-yl)][Cha]C[dE]-NH2; thioether N-12) displayed a CC50 at 72 h in the data set “in vitro” of over 1000 nM. For the same compound, the “lung histology (HE staining)” value in data set [5] (10 mg administration group, day 10) was “mild aggregation of lymphocytes (*) was observed around blood vessels near the bronchioles in some lung lobes”. The “weight loss / respiratory symptoms” value in data set [5] (mouse, in vivo) was “no findings suggestive of weight loss or respiratory symptoms were observed”. This compound also yielded an Anti-SARS-CoV-2 activity in data set [2] of 2. In addition, in data set [3], it took 2.3 nM to reach half-maximal inhibition (IC50). Also, the “Imax: % (at 500 nM)” value in data set [4] was 99%.
